For orientation: melting point means the temperature, or range, at which the solid turns liquid.

Molecule `O=C1OC(O)c2ccc([N+](=O)[O-])cc21` (stereo not given) displayed a melting point of 157 to 160 °C. For the molecule `Cc1cc(C(=S)NCc2cccc([N+](=O)[O-])c2)c(OCC(=O)O)cc1F`, the melting point is 137 to 139 °C.

In turn, `COCCc1cc([N+](=O)[O-])cc([N+](=O)[O-])c1` showed a melting point of 65 °C. In turn, `c1ccc(N2CCN(CCc3nc4ccccc4[nH]3)CC2)cc1` gave a melting point of 201 to 203 °C. Then `N=C(N)NCCc1nccs1`, with 130 to 135 °C; and `COC(=O)c1cccc(-n2cnc3cc(-c4ccno4)ccc32)c1`, with 190 to 191 °C; and `CC(C)(C)OC(=O)N1CCc2onc(O)c2C1`, with 151 to 152 °C.

Molecule `COC(=O)C#CC(=O)c1ccccc1` displayed a melting point of 31 to 35 °C. In the case of `O=C1C=C(NC(=O)C(=O)c2cn(Cc3ccc(Cl)cc3)c3ccc(Cl)cc23)CO1`, the melting point is 251 to 253 °C. The figure for `CC12CCC(=O)C=C1CCC1C2CCC2(C)C(c3cccnc3)=CCC12` (stereo not given) is 148 to 150 °C. Then `CCC(C(C)=CC(CNC(=O)c1ccc(N)nc1)=NO)[N+](=O)[O-]` (stereo not given), with 190 to 191 °C; and `CCOC(=O)C1=C(CC)NC(CC)=C(C(=O)OCC)C1c1ccccc1/C=C/C(=O)OC(C)(C)C`, with 154 to 155 °C; and `CC(=O)c1ccc(C=CC(=O)N2CCc3c([nH]c4ccccc34)C2c2ccc3c(c2)OCO3)cc1O` (stereo not given), with 217 to 218 °C. `Cn1nc(-c2cnc3[nH]cc(C(=O)NC4CCS(=O)(=O)C4)c3n2)c2ccc(Cl)cc21` (stereo not given) displayed a melting point of 383 to 385 °C.

Consider `Oc1cc(O)cc(CN/C=C2\CN=Cc3ccc(Br)cc32)c1`, for which the melting point lay in the range of 263 to 264 °C. `CCSc1nsc(NC(=O)NC)c1C(N)=O` displayed a melting point of 205 °C. In turn, `Nc1ccc(CNC(=O)OCc2ccccc2)cc1` yielded a melting point of 60 to 64 °C.

Take `CC(C#N)c1ccc2nc(N)sc2c1` (stereo not given): the melting point was found to be 165 °C. For `CC(=O)C(O)C1OC(n2cnc3c(NC4CCCc5ccccc54)ncnc32)C(O)C1O` (stereo not given), the melting point was in the range of 87 to 97 °C.

On to `CCC(=O)C1C(=O)CC(c2ccccc2Cl)CC1=O` (stereo not given), for which the melting point lay within 63 to 64 °C.

For `COc1cc2cc(CO)cc(-c3ccnc(Cl)c3)c2cc1OC`, the melting point fell in the range of 115 to 118 °C. The figure for `COC(=O)c1cc(SCc2ccsc2)c(Oc2ccccc2)c(S(N)(=O)=O)c1` is 148 to 149 °C; for `C=C[C@]1(C)CCc2c(C)c(OCc3ccccc3)c(C)c(C)c2O1` it is 63 to 66 °C; for `CC(C)CNC(=O)C(C)(C)c1ccc(-c2cccn2C)cc1` it is 59 to 60 °C. The figure for `CN(C)C1(c2ccccc2)CCC(CNC(=O)N2CCCC(c3c[nH]c4ccccc34)C2)CC1` (stereo not given) is 95 to 99 °C; for `CC(=O)N1CCC2(CC1)C(=O)N(CC(=O)Nc1c(C(C)C)cccc1C(C)C)C(=O)N2c1ccc(C)cc1` it is 136 to 138 °C. On to `CNc1ccc(N)cc1C(=O)n1nc(O)c2ccccc21`, for which the melting point fell in the range of 184 to 186 °C. Regarding `CCOC(=O)c1cc(C#N)c(C=O)nc1N1CCCCC1`, the melting point fell in the range of 62 to 64 °C. As for `CCCN(c1ccncc1)n1cc(C)c2cc(OCc3ccccc3)ccc21`, the melting point was in the range of 165 to 167 °C.

Take `Cc1c(-c2ccc(C(C)C)cc2)oc2c(C(=O)O)cccc2c1=O`: the melting point was 216 to 220 °C. The figure for `O=C(NC[C@H]1CC[C@H](C(=O)O)CC1)OCc1ccccc1` is 114 to 116 °C; for `Cc1ccc(-c2c(Cl)nc3ncnn3c2Cl)c(F)c1` it is 152 °C.

In turn, `COCCCOc1ccc(/C=C(\C)C(=O)O)c(Oc2ncc(Cl)cc2Cl)c1` registered a melting point of 128 to 130 °C. `O=c1cc(-c2nc3ccccc3[nH]2)oc2ccc(Cl)cc12` returned a melting point of 248 to 250 °C. Then `CN1CCCCC1CCCc1ccccc1NC(=O)C=Cc1ccccc1` (stereo not given), with 130 to 132 °C; and `Cc1ccc(Cn2nc(CCCc3ccc(OC(C)(C)C(=O)O)cc3)[nH]c2=O)cc1C`, with 146 to 150 °C; and `CC(C)(C)OC(=O)CC1CCNC(=O)c2ccccc21` (stereo not given), with 126 to 127 °C.

As to `Nc1cc(-n2cc(C(=O)O)c(=O)c3cc(F)c(F)c(Cl)c32)cnc1Cl`, the melting point was in the range of 277 to 281 °C.

Molecule `COc1ccc2c(c1)S(=O)(=O)N=CN2CCCl` displayed a melting point of 126 to 130 °C. Take `COc1ccccc1SCCC(=O)O`: the melting point fell in the range of 91 to 91.5 °C. The figure for `CSc1c(Cl)nc(Cl)nc1SC#N` is 143 to 144 °C; for `O=C(c1ccc(F)cc1)c1cnn2c(-c3ccncc3)ccnc12` it is 214 to 216 °C. In turn, `CNC(=O)NS(=O)(=O)c1cc(CCNC(=O)c2cc(Cl)ccc2OC)ccc1-c1ccco1` displayed a melting point of 118 to 120 °C. As to `NCC#Cc1cnc2c(c1)N(Cc1cc(Cl)ccc1Cl)CCN2`, the melting point amounted to 183 °C. Then `CCc1cc2c(o1)S(=O)(=O)NC2=O`, with 133 °C; and `O=Cc1cn(-c2ccc(F)cc2)c2ccc(Cl)cc12`, with 152 to 154 °C.

`CC(C)CC(NC(=O)N1CCCCCC1)C(=O)NC(Cc1ccc(C#Cc2ccccc2)cc1)C(=O)NC(C)(C)C` (stereo not given) returned a melting point of 115 to 117 °C. The figure for `CC(C)N(C(C)C)S(=O)(=O)NC(=O)c1nsc2ccc(-n3c(=O)cc(C(F)(F)F)n(C)c3=O)cc12` is 214 °C; for `CC(C)c1ccc(CCOc2ccnc3c(F)cccc23)cc1` it is 56 to 60 °C.

Consider `COCCOc1ccc(C=O)cc1O`, for which the melting point was 74 to 75 °C. Then `N=C(Nc1cccc2ccccc12)Nc1cccc2ccccc12`, with 210 to 211 °C; and `CC(=O)NCc1cccc(Nc2nccc(-c3sc(-c4ccc(C)nc4)nc3C)n2)c1`, with 227 to 229 °C. In turn, `COc1cc(C(C)C)c2c(c1)S(=O)(=O)N(COC(=O)c1ccsc1)C2=O` returned a melting point of 125 to 127 °C. The molecule `N#Cc1cnc2cnc(F)cc2c1O` registered a melting point of 214 to 215 °C. The figure for `BrCc1ccc(-c2onc3ccccc23)cc1` is 146 to 147 °C; for `O[C@H](COc1cccc2[nH]ccc12)CN1CC=C(c2c[nH]c3c(Cl)cccc23)CC1` it is 85 to 90 °C. The molecule `CCOCCn1c(N2CCCN(CCC3(c4ccc(Cl)cc4)CCN(C(=O)c4cc(OC)c(OC)c(OC)c4)C3)CC2)nc2ccccc21` (stereo not given) showed a melting point of 74 to 81 °C. Then `Cc1cc(Cl)cc(C(=O)NC2(C)CSC2)c1NC(=O)c1cc(C(F)(F)F)nn1-c1ncccc1Cl`, with 238 to 241 °C; and `CCCC(=O)Nc1c(C)cccc1C`, with 134 to 136 °C.

Turning to `O=C1c2ccccc2C(=O)N1CCN1CCN(C(c2ccc(F)cc2)c2ccc(F)cc2)CC1`, the melting point is 125 to 126 °C. In turn, `Cc1cc(O)ccc1NCCCCCCBr` showed a melting point of 142 to 144 °C. Then `O=C(c1ccc(Br)cc1)N1CCN(CCCN2CCN(C(=O)c3ccc(Br)cc3)CC2)CC1`, with 170 to 173 °C. The figure for `CCN(CC)C(=O)c1ccccc1-c1ccc2ccccc2c1` is 52 to 53 °C.

`CC(Oc1cc2sc(NC(=O)CCCN3CCCC3)nc2cc1F)c1c(Cl)ccc(F)c1Cl` (stereo not given): the melting point was in the range of 153 to 157 °C. The figure for `Cc1nc2ccc3c(c2nc1C)OC(CN1CC=C(c2c[nH]c4ccccc24)CC1)CO3` (stereo not given) is 153 to 155 °C.

As for `CC(C)(C)c1cc(-c2nn(CCCBr)c(=O)o2)cc(C(C)(C)C)c1O`, the melting point was 130 to 131 °C. The figure for `CCOc1cc(I)cc(OCC)c1OCC` is 44 to 46 °C. In turn, `CC(c1ccc(Br)cc1)N(O)C(N)=O` (stereo not given) showed a melting point of 138 to 140 °C. As for `CCOC(=O)c1[nH]c2c(O)cccc2c1C`, the melting point lay within 187 to 190 °C. The figure for `COC(=O)CCCc1cc2cc(Cl)ccc2n1S(=O)(=O)c1ccc2nc(NC(C)=O)sc2c1` is 120 °C; for `COc1cc(NC(=O)Nc2c(-c3ccccc3C)c3cc(C)c(C)cc3oc2=O)cc(OC)c1OC(C)=O` it is 238 to 240 °C; for `CC(C)(C)c1nc(C=C2CCOC2=O)nc(C(C)(C)C)c1O` it is 158 to 160 °C. Consider `COc1ccc(N2CCC(C(N)=O)CC2)cc1`, for which the melting point was in the range of 178 to 181 °C. The molecule `CC(=O)c1c(-c2ccc(Cl)cc2)c(-c2ccc(Cl)cc2)nn(CCC2OC(CO)C(O)C(O)C2O)c1=O` (stereo not given) gave a melting point of 96 to 122 °C. The figure for `CCOC(=O)C(NC(=O)NN1CC(=O)NC1=O)c1cccs1` (stereo not given) is 151 to 155 °C; for `CCOC(=O)c1cnn(-c2c(F)cc(C(F)(F)F)cc2Cl)c1N` it is 147 to 149 °C; for `COc1cc(O)c(C=O)cc1OC` it is 104 to 105 °C.

`O=C(Nc1ccccc1)C1(C=Cc2ccccc2)SC=CC1OC(F)F` (stereo not given) yielded a melting point of 80 to 82 °C. Then `Cn1ncc2c1C(=O)C(Cl)=C(Cl)C2=O`, with 176 to 177 °C; and `C#CCOc1cc(C(=O)O)n(-c2ncc(Cl)cc2Cl)n1`, with 151 to 157 °C. The figure for `CCCCc1nc2cscc2[nH]1` is 118 °C; for `NC(=O)C1CCCN1c1nc(-c2ccccc2)nc2[nH]c(CN3CCC(O)(c4ccccc4)CC3)cc12` (stereo not given) it is 234 to 235 °C. The figure for `C1=c2ccn3c2=C(CC1)c1nncn1-c1ccccc1-3` is 177 to 178 °C. `CCCC(=O)c1cnc2c(C)cccc2c1Nc1ccccc1OC` displayed a melting point of 135 to 137 °C. `CCCCc1nc(Cl)c(C=O)n1Cc1ccc(-c2nc3ccccn3c2C(=O)O)cc1` came in with a melting point of 120 to 123 °C. The figure for `CC(C)C1C(=O)NC(c2ccc(NC(=O)CCl)cc2)c2ccccc21` (stereo not given) is 269 to 270 °C; for `COc1cc2c(c3c1OC(C)(C)C3)C(c1ccnc(-n3c(=O)cc(C)c4ccccc43)c1)=NC(C)(C)C2` it is 218 to 219 °C; for `O=[N+]([O-])c1cccc(Oc2cccc(-c3nnc(Nc4ccc(Cl)c(Cl)c4)s3)c2)c1` it is 210 to 212 °C.

`OCC(O)(c1ccccc1)C(Cl)c1ccccc1` (stereo not given) registered a melting point of 108 to 109 °C. The figure for `CS(=O)(=O)c1ccc(-c2cc(C(F)F)nn2-c2cccc(C(F)(F)F)c2)cc1F` is 110 to 111 °C.

The values are drawn from a melting point compilation (Tetko et al.; mined from patent text by program, amines drawn as free bases though some values may be those of a salt).
